Consider five sequences from patent US9796777B2, “Methods of treating malignant tumors” (Canimguide Therapeutics AB, priority 2007, dated 2017).

For one assay, the system named is PBMCs. Nature of the assay: PHA-induced proliferation of PBMC in the presence of albumin peptides and/or dHSA. The assay is classed as cell-based, human. The settings on record: PBMCs from two healthy controls; two PHA concentrations. The source says: Venous blood was drawn from healthy volunteers or from cancer patients in glass vacuum tubes with acid dextrose citrate solution A as anti-coagulant (Vacutainer, Becton Dickinson, Franklin Lakes, N.J.). Erythrocytes were removed by sedimentation on 2% dextran T500 solution (Amersham Pharmacia Biotech AB, Uppsala, Sweden) in 0.9% NaCl (this step was omitted for cultures with PHA-stimulation-see below). […] For cell cultures with PHA-stimulation, PBMC were washed in Hank's Balanced Salt Solution (HBSS) with 10% autologous plasma instead of RPMI/2% HSA. […] The cell suspension was stained with Turk's solution and the number of lymphocytes and monocytes in the PBMC preparation were counted in a hemocytometer. PBMCs were suspended in RPMI/2% HSA and the cell concentration adjusted to 5×10^5 lymphocytes/ml.
100 μl of the cell suspension were seeded into round-bottomed microtiter plates (Corning, N.Y., USA) followed by 100 μl of culture medium consisting of RPMI 1640 (Flow Laboratories, Irvine, Scotland) supplemented with 200 IU/ml Penicillin, 200 μg/ml Streptomycin (Flow laboratories) and 20% heat inactivated autologous serum. Phytohemagglutinin (PHA-P, Sigma Chemical Co, St. Louis, Mo.) at a final concentration of 5 or 10 μg/ml was then added.
All culture conditions were set up in triplicate wells. […] Mean values of disintegrations per minute (dpm) of triplicates were used for the calculations.

Assay [1] concerns PBMC. Description: LPS-induced IL-6 production by PBMC, effect of peptides. The assay is classed as cell-based, human. On the procedure:
100 μl of culture medium consisting of RPMI1640 supplemented with 200 IU/ml penicillin, 200 μg/ml streptomycin, 4 mM L-glutamine (Sigma Chemical, Mo., US) and 20% fresh heat-inactivated autologous serum were added to un-coated or -pre-coated microtiter plates followed by 100 μl of PBMC suspension (5×10^4 lymphocytes) in RPMI/2% HSA with peptides at the indicated concentrations. Lipoplysaccharide (LPS, Sigma Chemical Co, MO, US) was added at a final concentration of 0.05 ng/ml. […] All assay conditions were set up in triplicate wells. Supernatants (SNs) were harvested after 24 hrs and residual cells were removed by centrifugation in a refrigerated centrifuge (Beckman) at 2600×g for 5 minutes. SNs were frozen and stored at −70° C. IL-6 in cell culture SNs was measured by ELISA using the DuoSet® ELISA development kit for human IL-6 (R&D Systems Europe, Ltd., Abingdon, UK) following the manufacturer's recommended procedures. The lower limit of detection was 3.1 pg/ml. Samples were analysed as mean of triplicate wells.

In assay [2] the test system is PBMC. Description: IL-2 induced proliferation of PBMC with albumin peptides in coated and uncoated tissue culture plates. The settings on record: PBMC from healthy individuals; peptide 5 μg/ml final; 7 days. The assay is classed as cell-based, human. Here is the method: A mixture of 1 mg/ml IgG in a solution of 9 mg/ml HSA in RPMI (HSA/IgG) was also prepared. 200 μl of HSA or HSA/IgG were then added to each well of the plate. The plates were incubated at 4° C. for 30 minutes after which the wells were washed twice with 200 μl of RPMI1640. The coated plates were used immediately. […] PBMC, isolated from healthy individuals, were diluted in RPMI/2% HSA and peptides were added directly to the cell suspension at a concentration of 10 μg/ml.

Assay [3] relates to cell surface receptors of immune cells (ACS). Nature of the assay: Adsorption of enzyme fragmented dHSA on affinity column with biotinylated cell surface proteins (ACS), MALDI-TOF ms. The assay is classed as binding, human. Here is the method: Based on the observation that immunoregulatory peptide sequences are present in serum albumin, there is the possibility that other sequences than the epitope of mAb A have immunoregulatory function. Therefore an artificial cell surface (ACS) was prepared as described in materials and methods. […]
To remove unfragmented albumin and enzyme, the sample was ultra filtered through an Amicon Ultra 4 (mw cut-off of 5000) or a Centriplus (mw cut-off 10000) centrifugal filter (Millipore AB, Solna, Sweden). The filtrate, containing fragmented dHSA without enzymes, was collected and diluted with PBS with Ca and Mg (GIBCO).
Buffy coats generated from 450 ml blood each was collected from 4 healthy donors. Erythrocytes were removed by sedimentation on 2% dextran T500 solution (Amersham Pharmacia Biotech AB, Uppsala Sweden) in 0.9% NaCl. Mononuclear cells (PBMC) were then isolated by Ficoll-Paque Plus (GE Healthcare Bioscience AB Sweden) density gradient centrifugation. The PBMC were then suspended in phosphate buffered saline (PBS) containing Ca and Mg (GIBCO) at a concentration of 10×10^6/ml. EZ Link Sulfo-NHS-biotin (Pierce USA) was added at a final concentration of 0.2 mg/ml and the mixture incubated on a shaker at room temperature for 10 min. Excess biotin was then removed by washing the PBMC in PBS. Biotinylated PBMC were then lysed by adding 1.0 ml ice-cold lysing buffer (50 mM Tris-HCL, pH 7.5, with 0.15 M NaCl, 5 mM MgCl2 containing 100 mM Octyl glucoside and 1 mM Phenylmethylsulfonyl fluoride) per 2×10^7 pelleted cells with gentle shaking, then incubated for 30 min. on ice. Debris was removed by centrifugation at 5000×g at 4° C. for 10 min and the supernatants was collected and pooled from all four donors. The lysate was then stored at −70° C. in polypropylene plastic tubes.
This amount of lysate corresponds to 36×10^7 mononuclear cells. It was added to a 1 ml Hitrap Streptavidin HP affinity column (Amersham Biosciences). To block possible remaining free biotin, 5 ml of 0.1 M glycine (Sigma) was added to the column. Unsaturated streptavidin on the column was then reacted with 150 ug biotin (Sigma) in binding buffer. The column was carefully washed with PBS and stored in PBS with 0.1% NaN3 at 4° C. until use.
27 ml biotinylated cell lysate in binding buffer (corresponding to 54×10^7 mononuclear cells) was added to 1.5 ml washed Streptavidin Sepharose HP (Amersham Biosciences). To block possible remaining free biotin, 25 ml of 0.1 M glycine (Sigma) was added to the Streptavidin Sepharose. Unsaturated streptavidin was then reacted with 225 μg biotin (Sigma) in binding buffer. The Streptavidin Sepharose was carefully washed in PBS. One ml of the biotinylated cell lysate coupled Streptavidin Sepharose was then packed in an empty column (Tricorn Empty High Performance Column, Amersham Bioscience) and washed with phosphate buffered saline (PBS) containing Ca and Mg (GIBCO).
The flow-through was collected with consideration taken to void volume and dilution of adsorbed sample by collecting in small portions of 0.2 ml. Thirty ul of each sample, including a control sample that has not been adsorbed, were dried in a Speed-Vac centrifuge.
Dried samples were reconstituted in 10 ul of 0.1% TFA. Zip Tip pipette tips (Millipore, USA) containing C18 reversed-phase media were used for desalting reconstituted samples. […] For the analysis of samples in the mass range 1500-9000 Da, one μl of each Zip Tip eluted sample was mixed with 1 μl of sinapinic acid ([…]). […] Mass identity search of resulting spectra was performed in the SwissProt or NCBI databases using MS-Fit.

The target of assay [4] is T1, β2-integrin LFA-1 (CD11a) (Homo sapiens, UniProt P20701).
T1 construct: endogenous in cells; host or cells: human PBMC (healthy controls, cancer patients) and THP-1 monocytic cell line (ATCC)
Nature of the assay: Immunocytochemical staining of PBMC and THP-1 with anti-integrin (CD11a) antibody with or without albumin peptides. In kind it is binding. On the procedure:
Cytospin preparations of mononuclear blood cells from healthy controls, cancer patients and a monocytic cell line, THP-1, were prepared (as described under materials and methods), dried and stored at −70° C. In the immunocytological staining, unspecific staining was blocked by incubation with 10% human AB serum. Some of the slides were preincubated for 60 minutes with albumin peptides at a concentration of 40 μg/ml, added to this 10% AB serum, as indicated in the FIG. 8 A-F. The staining procedure was then continued as described in material and methods. The staining intensity of slides stained with and without preincubation with the peptides was recorded semi quantitatively using a standard light microscope.
PBMC were separated as described above. Cultured THP-1 cells (obtained from the American Type Culture Collection through LGL Nordic AB, Sweden) were carefully washed and suspended in RPMI1640. PBMC and THP-1 were immediately spun down on pre-cleaned microscope slides in a Shandon Cytospin (Shandon Scientific Ltd, UK) at 1000 RPM for 7 min at 2.5 or 5×10^4 cells per slide. The slides were left to dry at room temperature over night, after which they were wrapped in parafilm and stored at −70° C. Immediately before use, the cytospins were thawed and fixed with acetone for 5 min at room temperature. The cytospins were first blocked with 10% normal human AB-serum with and without albumin peptides (40 ␣g/ml) for 1 h before staining. Primary antibody, consisting of a monoclonal mouse anti-human CD11a (clone HI111, BD Biosciences) diluted in Tris buffered saline (TBS, pH 7.6) at 5 μg/ml (THP-1) or 1 µg/ml (PBMC), was added. The slides were incubated for 30 min and then washed in TBS followed by Envision-Alkaline Phosphatase (Dako Norden A/S, Denmark) for 30 min. After additional washing in TBS, the slides were incubated in alkaline phoshatase substrate consisting of Fast Red TR salt (Sigma), naphtol AS-MX (Sigma) and 5 mM levamisol (Sigma) to block endogenous alkaline phosphatase activity, for 20 min followed by washing in TBS. They were then counterstained in Mayer's haematoxylin for 1 minute and mounted in Glycergel (Dako Norden NS). Monoclonal mouse IgG1 against an irrelevant antigen (Aspergillus niger glukosoxidase, Dako Norden NS) was used as a negative control. All incubations were performed at room temperature in a moist chamber.
FIG. 24. Inhibition of the binding of anti-LFA-1, mab HI111, to mononuclear blood cells by 3028 peptide and fragments 3325 and 3218. A standard immunohistochemical staining procedure using acetone fixation, 10% human AB-serum for blocking, incubation with HI 111 and a secondary antibody (Ultravision, an alkaline phosphate conjugated polymer attached to Fab-fragments of goat anti-mouse Ig), followed by development with Fast Red. The slides were then mounted in Glycergel. Preincubation with peptides added to the AB serum was as follows: A. No peptide added, B. peptide 3028, C. The C-terminal part (3218), and D. The N-terminal part (3325).

Assay [5] relates to PBMC. Nature of the assay: Human ex vivo model: IL-2 induced proliferation of PBMC in the presence of albumin peptides. The conditions noted are these: alone or in combination.
Assay [6] deals with natural killer (NK) cells. Nature of the assay: Cytotoxic activity of natural killer (NK) cells against K562 (NKTEST, flow cytometry). The assay is classed as cell-based, human. The settings on record: four healthy donors; peptides 10 ug/ml; effector:target ratio 40:1. On the procedure: Mononuclear cells were separated by standard Ficoll-paque Plus (Pharmacia AB, Sweden) density gradient centrifugation from heparinized blood obtained from healthy donors. NK cell cytotoxic activity of the mononuclear cells was then tested using a commercial kit (NKTEST, Orpegen Pharma GmbH, Heidelberg, Germany) following the manufacturers protocol. Briefly, the kit contains cryopreserved, NK-sensitive target cells (K562) labelled with a lipophilic green fluorescent membrane dye, which enables discrimination of effector and target cells. After incubation with effector cells, killed target cells are identified by a DNA-stain, which penetrates and specifically stain the nuclei of dead target cells. This way the percentage of killed targets can be determined by flow cytometry. The mononuclear cells were pre-incubated for 30 min at 37° C. with the indicated peptides (peptides have been described previously) at 10 ug/ml. Target cells were then added, giving an effector:target ratio of 40:1, and the cell mixture incubated at 37° C. for 3-4 hours. Samples were analysed on a FACSCalibur (BD Biosciences, San Jose, Calif.).

T1 sequence (P20701 26-1170): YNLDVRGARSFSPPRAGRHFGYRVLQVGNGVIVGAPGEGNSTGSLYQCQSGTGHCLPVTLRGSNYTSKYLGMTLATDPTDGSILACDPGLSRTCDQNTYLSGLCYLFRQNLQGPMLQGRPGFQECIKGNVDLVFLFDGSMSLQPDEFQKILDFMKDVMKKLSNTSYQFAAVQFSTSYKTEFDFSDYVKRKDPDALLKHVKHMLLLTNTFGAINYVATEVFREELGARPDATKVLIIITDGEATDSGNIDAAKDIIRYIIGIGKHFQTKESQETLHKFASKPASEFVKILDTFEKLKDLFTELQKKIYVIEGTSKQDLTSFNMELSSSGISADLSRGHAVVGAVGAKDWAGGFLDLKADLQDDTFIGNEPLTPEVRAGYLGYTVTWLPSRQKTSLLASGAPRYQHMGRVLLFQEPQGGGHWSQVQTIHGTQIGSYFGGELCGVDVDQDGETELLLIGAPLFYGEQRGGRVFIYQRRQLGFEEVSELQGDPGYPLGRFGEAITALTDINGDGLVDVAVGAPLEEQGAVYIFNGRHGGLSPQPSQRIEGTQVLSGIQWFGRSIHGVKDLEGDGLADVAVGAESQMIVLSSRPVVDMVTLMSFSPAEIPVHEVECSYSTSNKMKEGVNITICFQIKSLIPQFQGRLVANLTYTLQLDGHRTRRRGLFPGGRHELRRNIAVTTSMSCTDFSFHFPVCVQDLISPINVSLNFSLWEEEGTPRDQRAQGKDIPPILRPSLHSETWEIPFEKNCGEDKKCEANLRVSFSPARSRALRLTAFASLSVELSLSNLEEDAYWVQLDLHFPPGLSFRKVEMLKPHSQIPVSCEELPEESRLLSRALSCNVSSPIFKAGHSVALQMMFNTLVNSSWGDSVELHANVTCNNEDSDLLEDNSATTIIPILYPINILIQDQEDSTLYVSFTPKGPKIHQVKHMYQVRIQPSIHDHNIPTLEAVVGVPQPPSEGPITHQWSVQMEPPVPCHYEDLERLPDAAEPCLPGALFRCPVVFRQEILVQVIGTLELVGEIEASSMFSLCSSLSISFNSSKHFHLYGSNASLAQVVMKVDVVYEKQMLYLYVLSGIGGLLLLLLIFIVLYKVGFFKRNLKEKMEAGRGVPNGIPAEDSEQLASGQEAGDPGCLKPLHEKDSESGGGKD
T1 sequence (P05107 23-769 partner): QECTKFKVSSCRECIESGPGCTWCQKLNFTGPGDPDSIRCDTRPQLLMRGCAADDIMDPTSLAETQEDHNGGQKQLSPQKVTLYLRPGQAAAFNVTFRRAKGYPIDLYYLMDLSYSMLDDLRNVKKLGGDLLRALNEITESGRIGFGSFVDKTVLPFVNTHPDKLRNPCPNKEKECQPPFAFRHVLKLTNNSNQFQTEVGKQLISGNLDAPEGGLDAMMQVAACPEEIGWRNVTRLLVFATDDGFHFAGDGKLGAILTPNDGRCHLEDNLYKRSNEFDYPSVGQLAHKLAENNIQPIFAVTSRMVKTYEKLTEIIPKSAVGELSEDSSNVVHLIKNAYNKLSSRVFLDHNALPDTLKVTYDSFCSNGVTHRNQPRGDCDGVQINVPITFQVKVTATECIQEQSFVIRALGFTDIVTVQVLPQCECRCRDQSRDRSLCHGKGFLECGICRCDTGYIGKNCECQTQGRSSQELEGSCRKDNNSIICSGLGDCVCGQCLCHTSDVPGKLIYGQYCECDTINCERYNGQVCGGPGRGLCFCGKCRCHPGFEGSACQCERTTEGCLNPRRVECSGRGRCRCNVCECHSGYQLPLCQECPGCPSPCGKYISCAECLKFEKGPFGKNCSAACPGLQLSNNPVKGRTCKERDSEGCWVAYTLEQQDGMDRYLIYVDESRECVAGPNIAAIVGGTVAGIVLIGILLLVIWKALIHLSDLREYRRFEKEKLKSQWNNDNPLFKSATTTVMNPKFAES

In the case of NEETFLKKYLYEIARRHPYFYAP [peptide 3026], the “effect on dHSA modulated PHA stimulated proliferation” value with PBMCs was “inhibited the stimulatory activity of dHSA”. The “effect on LPS induced IL-6 production” value in the assay on PBMC [1] (healthy control PBMC1) is recorded as “clear biphasic effect”; with PBMC [1] (healthy control PBMC 2) it was “no certain effect”; in the assay with PBMC [1] (renal cell carcinoma patient) it was “stimulatory effect”. The “effect on IL-2 induced proliferation” value with PBMC [2] is on record as “no statistically significant activity”.
Turning to KVPQVSTPTLVEVSR [compound 3029], the “effect on LPS induced IL-6 production” value with PBMC [1] (three cancer patients) was “essentially no effects”; in the assay with PBMC [1] (two healthy controls) it was “slight stimulatory effect in only one of the controls”. Also, the Per cent adsorbed came out at 0.64 Per cent in assay [3] (Table 5 A, peptides generated by trypsin degradation of dHSA) and 0.64 Per cent in assay [3] (Table 5 B, trypsin peptides selected for synthesis). In addition, in the assay with PBMC [2], the “effect on IL-2 induced proliferation” value is recorded as “no statistically significant activity”.
On to VFDEFKPLVE [peptide 3325], for which, in assay [4] (Table 9 summary), the “binding to LFA-1” value was “Weak binding”. Further, the “effect on binding of the LFA-1 antibody (HI 111) to LFA-1” value in assay [4] (mononuclear blood cells) was “inhibit the binding of mAb HI 111 to LFA-1”. For the same sequence, in the assay on PBMC [5], the “neutralisation of the inhibitory effect of peptide 3028 on IL-2 induced proliferation” value is “not neutralised”.
For ELFEQLGEYKFQNALLVR [peptide 3027], the “effect on LPS induced IL-6 production” value in the assay on PBMC [1] (melanoma patients) was “stimulated one of the melanoma patients”; in the assay with PBMC [1] (renal cell carcinoma patient) it was “stimulatory effect”; in the assay on PBMC [1] (two healthy controls), “slightly stimulatory in one of the controls and had an inhibitory effect in the other”. In the assay on PBMC [2], the “effect on IL-2 induced proliferation” value was “no statistically significant activity”. The “effect on percent specific lysis of K562 target cells” value in assay [6] is recorded as “Inhibition was not seen”.
For the sequence KLDELRDEGKAS [peptide 2606], the “effect on LPS induced IL-6 production” value in the assay with PBMC [1] (PBMCs from one healthy control, lowest peptide concentration) is recorded as “inhibitory”. The “effect on binding of the mAb to LFA-1” value in assay [4] (monocytic cell line THP-1, peptide 40 μg/ml preincubation) is “clearly enhanced”.
